Literature values in patent US20070232669A1, “N-phenylbenzotriazolyl c-kit inhibitors” (priority 2006, published 2007).
Structures can show the parent of a compound that is named as a salt.

Columns and labels:
[1] = system: MO7e human leukemia cells
[2] = system: MO7e human leukemia cells; remark: listed apart in the source

Cc1ccc(NC(=O)c2ccc(CN3CCN(C)CC3)cc2)cc1Nc1nccc(-c2cccnc2)n1 [Gleevec, imatinib mesylate]
Kit ligand-stimulated growth of MO7e human leukemia cells [1]: inhibited
GM-CSF stimulated growth of MO7e human leukemia cells [2]: not affected
